Patent publication US20200207829A1, “CHIMERIC RECEPTORS” (Oxford University Innovation Limited, priority 2017, published 2020)

Biological target: T1, dCas9(N/C)-synLPAR1 (Homo sapiens, UniProt Q92633)
T1 construct: TEV cleavage site ENLYFQL (TCS(Q'L)) (C); P2A + puromycin resistance protein (C, cleaved yes); TEV cleavage site ENLYFQG (TCS(Q'G)) (C); T2A + MCP-P65-HSF1 (C, cleaved yes); expressed in transfected cells; host or cells: HTLA cells (HEK-293 stably expressing beta-arrestin2-TEV fusion)
T1 sequence (Q92633 with tags, fused parts or gaps): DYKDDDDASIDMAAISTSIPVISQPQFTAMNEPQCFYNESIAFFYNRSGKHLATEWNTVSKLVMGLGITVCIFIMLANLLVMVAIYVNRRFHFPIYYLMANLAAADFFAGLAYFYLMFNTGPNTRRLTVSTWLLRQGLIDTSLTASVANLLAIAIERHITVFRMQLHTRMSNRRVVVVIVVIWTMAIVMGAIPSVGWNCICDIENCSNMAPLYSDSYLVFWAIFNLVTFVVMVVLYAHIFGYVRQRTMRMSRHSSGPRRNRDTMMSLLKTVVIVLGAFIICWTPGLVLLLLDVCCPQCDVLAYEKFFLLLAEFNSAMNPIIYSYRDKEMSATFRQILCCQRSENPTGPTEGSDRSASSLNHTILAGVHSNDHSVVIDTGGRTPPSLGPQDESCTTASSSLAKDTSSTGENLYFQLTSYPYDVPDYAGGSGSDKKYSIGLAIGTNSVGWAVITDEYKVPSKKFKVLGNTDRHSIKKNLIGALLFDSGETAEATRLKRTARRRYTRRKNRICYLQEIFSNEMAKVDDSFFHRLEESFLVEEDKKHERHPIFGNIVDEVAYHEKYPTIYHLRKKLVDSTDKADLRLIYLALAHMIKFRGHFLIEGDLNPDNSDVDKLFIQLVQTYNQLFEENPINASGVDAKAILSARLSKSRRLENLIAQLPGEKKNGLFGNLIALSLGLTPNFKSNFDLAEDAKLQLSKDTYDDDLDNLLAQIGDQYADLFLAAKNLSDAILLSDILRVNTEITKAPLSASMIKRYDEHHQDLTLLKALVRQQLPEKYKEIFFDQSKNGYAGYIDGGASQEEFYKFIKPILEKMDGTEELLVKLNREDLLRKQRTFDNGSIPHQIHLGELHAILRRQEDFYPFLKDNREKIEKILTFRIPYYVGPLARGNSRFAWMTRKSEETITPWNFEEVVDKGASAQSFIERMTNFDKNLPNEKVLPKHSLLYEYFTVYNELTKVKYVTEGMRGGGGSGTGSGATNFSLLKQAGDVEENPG
T1 sequence (Q92633 with tags, fused parts or gaps): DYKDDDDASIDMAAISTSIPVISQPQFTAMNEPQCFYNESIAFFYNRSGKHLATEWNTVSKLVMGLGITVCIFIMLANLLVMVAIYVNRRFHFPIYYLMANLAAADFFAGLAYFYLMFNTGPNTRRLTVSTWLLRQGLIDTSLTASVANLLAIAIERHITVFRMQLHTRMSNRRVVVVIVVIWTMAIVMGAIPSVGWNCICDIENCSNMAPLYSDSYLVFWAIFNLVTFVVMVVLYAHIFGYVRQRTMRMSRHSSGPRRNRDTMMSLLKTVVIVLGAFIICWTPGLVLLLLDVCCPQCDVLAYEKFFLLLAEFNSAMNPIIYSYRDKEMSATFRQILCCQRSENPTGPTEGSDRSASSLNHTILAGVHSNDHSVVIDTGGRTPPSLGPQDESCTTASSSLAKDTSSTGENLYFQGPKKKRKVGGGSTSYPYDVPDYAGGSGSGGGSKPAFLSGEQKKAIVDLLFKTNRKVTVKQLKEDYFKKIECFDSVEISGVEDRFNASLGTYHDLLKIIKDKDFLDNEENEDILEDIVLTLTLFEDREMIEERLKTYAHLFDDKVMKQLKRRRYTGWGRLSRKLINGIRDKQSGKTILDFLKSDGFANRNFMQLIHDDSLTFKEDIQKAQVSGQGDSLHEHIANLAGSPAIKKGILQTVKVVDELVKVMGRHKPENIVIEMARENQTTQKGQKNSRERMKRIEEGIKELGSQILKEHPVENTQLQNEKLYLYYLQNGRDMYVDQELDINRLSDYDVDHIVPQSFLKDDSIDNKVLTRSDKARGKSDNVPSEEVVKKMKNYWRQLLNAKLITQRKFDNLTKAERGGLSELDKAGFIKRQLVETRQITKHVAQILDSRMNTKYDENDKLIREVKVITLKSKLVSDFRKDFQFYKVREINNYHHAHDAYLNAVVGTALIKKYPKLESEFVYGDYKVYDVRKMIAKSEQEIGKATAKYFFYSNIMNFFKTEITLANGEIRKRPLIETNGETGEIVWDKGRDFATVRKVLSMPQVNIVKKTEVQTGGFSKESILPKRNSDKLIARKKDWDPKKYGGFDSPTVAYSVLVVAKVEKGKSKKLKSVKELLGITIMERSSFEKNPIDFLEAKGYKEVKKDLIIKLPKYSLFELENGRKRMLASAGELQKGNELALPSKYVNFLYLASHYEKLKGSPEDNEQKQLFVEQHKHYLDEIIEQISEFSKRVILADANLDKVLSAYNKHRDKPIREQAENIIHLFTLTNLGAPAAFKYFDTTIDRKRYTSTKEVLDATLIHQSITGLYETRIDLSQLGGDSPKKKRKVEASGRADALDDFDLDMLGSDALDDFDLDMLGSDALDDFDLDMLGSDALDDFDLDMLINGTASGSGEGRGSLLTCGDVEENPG
Assay: LPA dose-response of dCas9(N/C)-synLPAR1 (EYFP activation score, HTLA cells)
Format: cell-based
Details: sgEYFP, read-out: EC50 of LPA dose-dependent activation
Protocol: Transfection mixtures were vortexed for 10 seconds and incubated at room temperature for 20-30 minutes. Full media was removed from cells and replaced with experiment-specific transfection media prior to adding the DNA:PEI transfection mix as follows. For dCas9(N/C)-synBDKBR2 experiments, HTLA cells were transfected in DMEM+2% (v/v) FBS supplemented with bradykinin at indicated concentrations. The bradykinin transfection media was replaced after 20 hours with HTLA full media also supplemented with bradykinin, and incubated for an additional 24 hours. […]
For all EYFP reporter experiments, media was removed 44 or 48 hours post-transfection and cells were washed with PBS (1× phosphate buffer saline), trypsinized (0.05% trypsin-EDTA, Cat. #25300062, Gibco), and kept in 1×PBS on ice. […] 100,000 total events were recorded for each condition. Data was analysed and compensated using the FlowJo package (FLOWJO LLC). To calculate an EYFP activation score which integrates both reporter fluorescence intensity and % of activated cells the following formula was used as previously described (Xie et al., 2011). […]
The numerator (% EYFP^+ve×EYFP^mean) provides a weighted mean fluorescence accounting both for the strength of reporter activation (EYFP^mean) as well as population level activation (% EYFP^+ve), which penalizes OFF-state leakage. […]

## 1-oleoyl lysophosphatidic acid [LPA]
  EC50: 1820 nM
